Measured values from ChEMBL document CHEMBL3112436, “Discovery of a novel series of indoline carbamate and indolinylpyrimidine derivatives as potent GPR119 agonists” (Bioorg Med Chem, 2014).
≈ marks a conversion by molar mass, not a printed value.

How the values were obtained:
[1] = 1-Octanol-water partition coefficient, log D of the compound at pH 7.4 by HPLC analysis; type: physicochemical
[2] = molecular target: T1, Glucose-dependent insulinotropic receptor (Homo sapiens, UniProt Q8TDV5); test: Agonist activity at human GPR119 transfected in CHO cells assessed as cAMP accumulation after 2 hrs by luciferase reporter gene assay; type: functional, cell-based
T1 sequence (Q8TDV5 whole entry): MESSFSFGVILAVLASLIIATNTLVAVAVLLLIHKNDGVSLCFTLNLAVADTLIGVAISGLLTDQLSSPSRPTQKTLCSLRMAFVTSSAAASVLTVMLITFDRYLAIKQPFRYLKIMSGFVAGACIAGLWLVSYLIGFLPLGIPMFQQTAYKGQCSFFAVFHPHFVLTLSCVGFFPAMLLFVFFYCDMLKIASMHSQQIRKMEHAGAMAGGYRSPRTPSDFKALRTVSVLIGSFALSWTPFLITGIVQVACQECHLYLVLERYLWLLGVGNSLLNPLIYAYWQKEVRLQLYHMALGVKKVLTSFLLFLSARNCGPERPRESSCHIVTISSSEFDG

Rattus norvegicus [3] = test: Antidiabetic activity in Wistar fatty rat type 2 diabetic model assessed as reduction of plasma glucose level at 10 mg/kg, po administered 1 hr prior to glucose challenge by oral glucose tolerance test; type: functional, organism-based; set-up: dose 10 mg/kg; conditions: TDE = time-dependent effect
Rattus norvegicus [4] = test: Antidiabetic activity in Wistar fatty rat type 2 diabetic model assessed as increase in insulin secretion at 10 mg/kg, po administered 1 hr prior to glucose challenge by oral glucose tolerance test; type: functional, organism-based; set-up: dose 10 mg/kg; conditions: TDE = time-dependent effect
[5] = Aqueous solubility of the compound in buffer at pH 6.8 by HPLC analysis; type: physicochemical
Rattus norvegicus [6] = test: Antidiabetic activity in Wistar fatty rat type 2 diabetic model assessed as increase in insulin secretion at 30 mg/kg, po administered 1 hr prior to glucose challenge by oral glucose tolerance test; type: functional, organism-based; set-up: dose 30 mg/kg; conditions: TDE = time-dependent effect
Rattus norvegicus [7] = test: Antidiabetic activity in Wistar fatty rat type 2 diabetic model assessed as reduction of plasma glucose level at 30 mg/kg, po administered 1 hr prior to glucose challenge by oral glucose tolerance test; type: functional, organism-based; set-up: dose 30 mg/kg; conditions: TDE = time-dependent effect

| SMILES | logD [1] | EC50 [2] [nM] | solubility [5] [µg/mL] | Activity (Rattus norvegicus [3]) | Activity (Rattus norvegicus [4]) | Activity (Rattus norvegicus [6]) | Activity (Rattus norvegicus [7]) |
| --- | --- | --- | --- | --- | --- | --- | --- |
| CC(C)c1noc(N2CCC(Oc3cc(N4CCc5cc(S(C)(=O)=O)ccc54)ncn3)CC2)n1 | 3.1 | 7.7 |  | tde | tde |  |  |
| CC(C)(C)OC(=O)N1CCC(n2ccc3c(N4CCc5cc(S(C)(=O)=O)ccc54)ncnc32)CC1 |  | 16 |  |  |  |  |  |
| CC(C)(C)OC(=O)N1CCC(CCCCN2CCc3cc(S(C)(=O)=O)ccc32)CC1 | 4.1 | 1400 |  |  |  |  |  |
| CCc1cnc(N2CCC(C(C)COC(=O)N3CCc4cc(S(C)(=O)=O)cc(F)c43)CC2)nc1 (racemic) | 3.6 | 3.9 | 3.8 (≈ 7.75 µM) |  |  | tde | tde |
| CC(C)(C)OC(=O)N1CCC(CCNC(=O)N2CCc3cc(S(C)(=O)=O)ccc32)CC1 | 2.3 | 2500 |  |  |  |  |  |
| Cc1c(S(C)(=O)=O)ccc2c1CCN2C(=O)OCCC1CCN(C(=O)OC(C)(C)C)CC1 | 3.4 | 770 | 0.17 (≈ 0.364 µM) |  |  |  |  |
| CC(C)(C)OC(=O)N1CCC(CCOC(=O)N2CCc3c2ccc(S(C)(=O)=O)c3Cl)CC1 | 3.6 | 530 | 0.21 (≈ 0.431 µM) |  |  |  |  |
| CCc1cnc(N2CCC(Oc3cc(N4CCc5cc(S(C)(=O)=O)ccc54)ncn3)CC2)nc1 | 3.8 | 11 |  |  |  |  |  |
| CC(C)OC(=O)N1CCC(Oc2ccnc(N3CCc4cc(S(C)(=O)=O)ccc43)c2)CC1 | 3 | 87 |  |  |  |  |  |
| CC(C)OC(=O)N1CCC(Oc2cccc(N3CCc4cc(S(C)(=O)=O)ccc43)c2)CC1 | 3.5 | 490 |  |  |  |  |  |
| CC(COC(=O)N1CCc2cc(S(C)(=O)=O)ccc21)C1CCN(C(=O)OC(C)(C)C)CC1 (racemic) | 3.4 | 8.4 |  |  |  |  |  |
| CC(CC1CCN(C(=O)OC(C)(C)C)CC1)OC(=O)N1CCc2cc(S(C)(=O)=O)ccc21 (racemic) | 3.4 | 2600 |  |  |  |  |  |
| CC(C)OC(=O)N1CCC(Oc2ncnc(N3CCc4cc(S(C)(=O)=O)ccc43)n2)CC1 | 2.6 | 520 |  |  |  |  |  |
| CC(C)(C)OC(=O)N1CCC(C(O)COC(=O)N2CCc3cc(S(C)(=O)=O)ccc32)CC1 (racemic) | 2.1 | 2400 |  |  |  |  |  |
| CC(C)OC(=O)N1CCC(Oc2ccnc(N3CCc4cc(S(C)(=O)=O)ccc43)n2)CC1 | 3.5 | 8800 |  |  |  |  |  |
| CC(C)(C)OC(=O)N1CCC(CCCC(=O)N2CCc3cc(S(C)(=O)=O)ccc32)CC1 | 2.9 | 120 |  |  |  |  |  |
| CC(C)OC(=O)N1CCC(Oc2cc(N3CCc4cc(S(C)(=O)=O)ccc43)ncn2)CC1 | 3.1 | 17 |  |  |  |  |  |

Continued, in another order:

| logD [1] | EC50 [2] [nM] | solubility [5] [µg/mL] | SMILES | Activity (Rattus norvegicus [3]) | Activity (Rattus norvegicus [4]) | Activity (Rattus norvegicus [6]) | Activity (Rattus norvegicus [7]) |
| --- | --- | --- | --- | --- | --- | --- | --- |
| 3.3 | 160 | 0.67 (≈ 1.42 µM) | CC(C)(C)OC(=O)N1CCC(CCOC(=O)N2CCc3cc(S(C)(=O)=O)c(F)cc32)CC1 |  |  |  |  |
| 3.2 | 25 | 0.81 (≈ 1.72 µM) | CC(C)(C)OC(=O)N1CCC(CCOC(=O)N2CCc3c2ccc(S(C)(=O)=O)c3F)CC1 |  |  |  |  |
| 3.2 | 21 | 21 (≈ 43.1 µM) | CC(C)(C)OC(=O)N1CCC(CCOC(=O)N2CCc3cc(S(C)(=O)=O)cc(Cl)c32)CC1 |  |  |  |  |
| 3.1 | 68 |  | CC(C)(C)OC(=O)N1CCC(CCOC(=O)N2CCc3cc(S(C)(=O)=O)ccc32)CC1 |  |  |  |  |
| 3.2 | 44 | 44 (≈ 94.3 µM) | Cc1cc(S(C)(=O)=O)cc2c1N(C(=O)OCCC1CCN(C(=O)OC(C)(C)C)CC1)CC2 |  |  |  |  |
| 3 | 25 | 42 (≈ 89.3 µM) | CC(C)(C)OC(=O)N1CCC(CCOC(=O)N2CCc3cc(S(C)(=O)=O)cc(F)c32)CC1 |  |  |  |  |
| 3.3 | 4800 | 45 (≈ 93.2 µM) | COc1cc2c(cc1S(C)(=O)=O)CCN2C(=O)OCCC1CCN(C(=O)OC(C)(C)C)CC1 |  |  |  |  |
| 3.3 | 6.8 | 21 (≈ 43.3 µM) | CC(COC(=O)N1CCc2cc(S(C)(=O)=O)cc(F)c21)C1CCN(C(=O)OC(C)(C)C)CC1 (racemic) |  |  |  |  |
| 2.8 | 1700 | 64 (≈ 133 µM) | COc1cc(S(C)(=O)=O)cc2c1N(C(=O)OCCC1CCN(C(=O)OC(C)(C)C)CC1)CC2 |  |  |  |  |
